{"source": "patent US8883426B2", "about": "“Use of therapeutically effective lipids and method for producing organ-/tissue-specific therapeutically effective lipids” (PAT GmbH, priority 2005, dated 2014)", "key": {"[1]": {"tested_on": "HepG2-cells (hepatocytes)", "test": "Selective enrichment of fluorescence-marked conjugate in HepG2-cells, fluorescence microscopy", "format": "cell-based", "conditions": "50 uM, 37° C., 10 min., washed, treated with 5% beef-serum albumin", "method": "In order to control the selective enrichment of the LysoPE-DOCA-compound HepG2-cells (hepatocytes) were incubated at 37° C. with a fluorescence-marked ursodeoxycholate-1-palmitoyl, 2-NBD-PE-conjugate (at 50 uM) for 10 min., washed, and subsequently treated with 5% beef-serum albumin in order to remove the conjugate from the exterior plasma membrane of the cells. Subsequently the cells are microscopic controlled in phase contrast and in fluorescent light."}, "colon mucosa": {"tested_on": "colon mucosa", "conditions": "topic application, rat models, colitis induced by acetic acid and trinitro-benzosulfonic acid; cited from earlier work"}, "colitis ulcerosa": {"tested_on": "colitis ulcerosa", "conditions": "cited from earlier work"}, "[2]": {"conditions": "oral, retarding packaged form, compared to placebo control group"}}}
{"substance": "ursodeoxycholate-1-palmitoyl, 2-NBD-PE-conjugate", "values": [{"measurement": "enrichment in the cells under fluorescent-microscopic observation", "setting": "[1]", "value": "intense yellow-green coloration in the cytoplasm but not in the core of the cell"}]}
{"substance": "phosphatidyl choline", "values": [{"measurement": "protection of colon mucosa from induced colitis", "setting": "colon mucosa", "value": "protecting colon mucosa from colitis"}, {"measurement": "inflammatory activity of colitis ulcerosa", "setting": "colitis ulcerosa; oral, retarding packaged form with release in the lower small intestine and the colon", "value": "significantly suppresses the inflammatory activity"}, {"measurement": "improvement of the clinical activity on average", "setting": "colitis ulcerosa; [2]", "value": 70, "unit": "%"}, {"measurement": "patients treated in whom the improvement of clinical activity was achieved", "setting": "colitis ulcerosa; [2]", "value": 90, "unit": "%"}, {"measurement": "patients reaching clinical remission", "setting": "colitis ulcerosa; within three months", "value": "more than half of the patients reached even clinical remission"}]}
